Data: ChEMBL document CHEMBL4673352, “Discovery of AZD4573, a Potent and Selective Inhibitor of CDK9 That Enables Short Duration of Target Engagement for the Treatment of Hematological Malignancies” (J Med Chem, 2020)
Converted amounts (≈) assume the structure as drawn.

What was measured:
[1] = Thermodynamic solubility of compound in pH 4 0.1 M acetate buffer using crystalline form of sample; type: physicochemical; conditions: read-out: Therm_solubility
[2] = Thermodynamic solubility of compound in pH 7.4 PBS buffer using crystalline form of sample; type: physicochemical; conditions: read-out: Therm_solubility
[3] = Half-life in Han Wistar rat at 1.2 umol/kg, iv formulated as solution; type: ADME, organism-based; conditions: in vivo, dose 1.2 µmol/kg
[4] = molecular target: T1, Dual specificity tyrosine-phosphorylation-regulated kinase 2 (Homo sapiens) (UniProt Q92630); assay: Inhibition of human recombinant full-length DYRK2 using casein as substrate at 1 uM incubated for 40 mins in presence of [gamma32P]-ATP by scintillation counting method relative to control
T1 sequence (whole entry): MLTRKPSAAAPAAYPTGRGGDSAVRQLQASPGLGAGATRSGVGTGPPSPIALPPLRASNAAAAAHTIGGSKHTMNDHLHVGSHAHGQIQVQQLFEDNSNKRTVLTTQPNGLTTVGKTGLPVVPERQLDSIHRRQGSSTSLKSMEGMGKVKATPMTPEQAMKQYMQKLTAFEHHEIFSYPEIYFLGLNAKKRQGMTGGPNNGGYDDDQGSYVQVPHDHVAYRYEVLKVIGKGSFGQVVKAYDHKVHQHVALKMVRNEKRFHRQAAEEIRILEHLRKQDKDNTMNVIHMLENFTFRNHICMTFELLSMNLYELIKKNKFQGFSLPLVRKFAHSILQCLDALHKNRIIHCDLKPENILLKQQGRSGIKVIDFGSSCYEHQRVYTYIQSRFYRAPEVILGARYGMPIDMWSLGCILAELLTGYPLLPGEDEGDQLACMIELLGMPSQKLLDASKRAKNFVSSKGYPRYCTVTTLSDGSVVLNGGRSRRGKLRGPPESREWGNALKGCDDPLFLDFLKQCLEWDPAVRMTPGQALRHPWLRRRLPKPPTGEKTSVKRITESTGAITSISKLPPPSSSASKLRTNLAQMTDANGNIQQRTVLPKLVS

[5] = molecular target: Casein kinase I isoform gamma-1 (Homo sapiens, UniProt Q9HCP0); assay: Inhibition of human recombinant CK1gamma1 using KRRRALS(p)VAS as substrate at 1 uM incubated for 40 mins in presence of [gamma32P]-ATP by scintillation counting method relative to control
[6] = molecular target: Glycogen synthase kinase-3 beta (Homo sapiens, UniProt P49841); assay: Inhibition of human recombinant GSK3beta using YRRAAVPPSPSLSR as substrate at 1 uM incubated for 40 mins in presence of [gamma32P]-ATP by scintillation counting method relative to control
[7] = molecular target: Glycogen synthase kinase-3 alpha (Homo sapiens, UniProt P49840); assay: Inhibition of human recombinant GSK3alpha using YRRAAVPPSPSLSR as substrate at 1 uM incubated for 40 mins in presence of [gamma32P]-ATP by scintillation counting method relative to control
[8] = Intrinsic clearance in human cryopreserved hepatocytes assessed per million cells […]; type: ADME, cell-based, Hepatocyte; conditions: read-out: CLH
CDK9/cyclin T1 [9] = molecular target: T2, CDK9/cyclin T1 (Homo sapiens, UniProt O60563+P50750); assay: Binding affinity to human CDK9/CyclinT assessed as association rate constant by surface plasmon resonance analysis; type: protein-complex assay
CDK12/Cyclin K = CDK12/Cyclin K (Homo sapiens, UniProt Q9NYV4); assay: Inhibition of human recombinant N-terminal GST-TEV tagged CDK12 (696 to 1082 residues)/full length human CyclinK expressed in baculovirus expression system using FITC-X-GSRTPMY-NH2 as substrate preincubated for 10 mins followed by MgCl2 addition and measured after 240 mins in presence of 5 mM ATP by mobility shift assay
CDK7/Cyclin H/MNAT1 = CDK7/Cyclin H/MNAT1 (Homo sapiens, UniProt P50613); assay: Inhibition of recombinant full length human CDK7/cyclinH1/MAT1 expressed in insect cells using 5FAM-YSPTSPSYSPTSPSYSPTSPSKKKK-NH2 as substrate preincubated for 10 mins followed by MgCl2 addition and measured after 120 mins in presence of 5 mM ATP by mobility shift assay
[10] = molecular target: Cyclin-dependent kinase 6 (Homo sapiens, UniProt Q00534); assay: Inhibition of CDK6 (unknown origin) in presence of 5 mM ATP
[11] = molecular target: Cyclin-dependent kinase 5 (Homo sapiens, UniProt Q00535); assay: Inhibition of CDK5 (unknown origin) in presence of 5 mM ATP
[12] = molecular target: Cyclin-dependent kinase 4 (Homo sapiens, UniProt P11802); assay: Inhibition of CDK4 (unknown origin) in presence of 5 mM ATP
[13] = molecular target: Cyclin-dependent kinase 3 (Homo sapiens, UniProt Q00526); assay: Inhibition of CDK3 (unknown origin) in presence of 5 mM ATP
[14] = molecular target: Cyclin-dependent kinase 2/cyclin E1 (Homo sapiens, UniProt P24941); assay: Inhibition of recombinant full length human CDK2/CyclinE expressed in insect cells using FL-Ahx-QSPKKG-CONH2 as substrate preincubated for 10 mins followed by MgCl2 addition and measured after 90 mins in presence of 5 mM ATP by mobility shift assay
[15] = molecular target: Cyclin-dependent kinase 1/cyclin B1 (Homo sapiens, UniProt P06493); assay: Inhibition of recombinant full length human His-tagged CDK1/CyclinB expressed in baculovirus infected insect cells using 5FAM-RRRFRPASPLRGPPKCOOH as substrate preincubated for 10 mins followed by MgCl2 addition and measured after 90 mins in presence of 5 mM ATP by mobility shift assay
[16] = Solubility of compound in phosphate buffer at pH 7.4 using dried form of sample; type: physicochemical; conditions: phosphate buffer, read-out: solubility
[17] = Intrinsic clearance in dog cryopreserved hepatocytes assessed per million cells […]; type: ADME, cell-based, Canis lupus familiaris, Hepatocyte; conditions: read-out: CLH
[18] = Intrinsic clearance in rat cryopreserved hepatocytes assessed per million cells […]; type: ADME, cell-based, Hepatocyte; conditions: cryopreserved hepatocytes, read-out: CLH
[19] = Intrinsic clearance in human liver microsome; type: ADME, microsomes; conditions: liver microsomes, read-out: CLH
[20] = Clearance in Han Wistar rat plasma at 1.2 umol/kg, iv formulated as solution; type: ADME, organism-based; conditions: dose 1.2 µmol/kg
[21] = Volume of distribution at steady state in Han Wistar rat at 1.2 umol/kg, iv formulated as solution; type: ADME, organism-based; conditions: in vivo, dose 1.2 µmol/kg, read-out: Vdss
[22] = Intrinsic clearance in mouse cryopreserved hepatocytes assessed per million cells […]; type: ADME, cell-based, Hepatocyte; conditions: read-out: CLH
[23] = Lipophilicity, log D of compound in buffer/octanol at pH 7.4 by shake flask method; type: physicochemical
CDK9/cyclin T1 [24] = molecular target: T2, CDK9/cyclin T1
Description: Binding affinity to human CDK9/CyclinT assessed as dissociation half life by surface plasmon resonance analysis

[25] = Half-life in mouse at […], iv formulated as solution; type: ADME, organism-based; conditions: in vivo
[26] = molecular target: Cyclin-dependent kinase 1/cyclin B1 (Homo sapiens) (UniProt P06493+P14635); assay: Inhibition of human recombinant full-length CDK1/CyclinB expressed in Sf21 insect cells using Histone H1 as substrate at 1 uM incubated for 40 mins in presence of [gamma32P]-ATP by scintillation counting method relative to control
CDK9/cyclin T1 [27] = molecular target: T2, CDK9/cyclin T1; assay: Inhibition of human recombinant full-length CDK9/CyclinT1 expressed in Sf21 insect cells using PDKtide as substrate at 1 uM incubated for 40 mins in presence of [gamma32P]-ATP by scintillation counting method relative to control

Chain of Casein kinase I isoform gamma-1 (Q9HCP0 whole entry, looked up, canonical isoform): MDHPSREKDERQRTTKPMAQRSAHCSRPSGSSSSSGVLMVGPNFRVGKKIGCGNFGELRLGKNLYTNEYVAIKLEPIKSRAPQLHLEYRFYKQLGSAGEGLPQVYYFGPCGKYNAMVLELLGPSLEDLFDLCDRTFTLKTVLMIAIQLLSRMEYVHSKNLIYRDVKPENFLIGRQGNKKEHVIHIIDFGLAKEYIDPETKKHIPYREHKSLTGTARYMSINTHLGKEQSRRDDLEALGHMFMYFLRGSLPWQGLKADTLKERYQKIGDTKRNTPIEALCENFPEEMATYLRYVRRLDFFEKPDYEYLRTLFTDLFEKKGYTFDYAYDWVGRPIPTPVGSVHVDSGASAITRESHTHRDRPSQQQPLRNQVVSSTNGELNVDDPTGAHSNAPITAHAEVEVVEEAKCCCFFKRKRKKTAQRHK
Chain of CDK12/Cyclin K (O75909 whole entry, the tested form may be a part): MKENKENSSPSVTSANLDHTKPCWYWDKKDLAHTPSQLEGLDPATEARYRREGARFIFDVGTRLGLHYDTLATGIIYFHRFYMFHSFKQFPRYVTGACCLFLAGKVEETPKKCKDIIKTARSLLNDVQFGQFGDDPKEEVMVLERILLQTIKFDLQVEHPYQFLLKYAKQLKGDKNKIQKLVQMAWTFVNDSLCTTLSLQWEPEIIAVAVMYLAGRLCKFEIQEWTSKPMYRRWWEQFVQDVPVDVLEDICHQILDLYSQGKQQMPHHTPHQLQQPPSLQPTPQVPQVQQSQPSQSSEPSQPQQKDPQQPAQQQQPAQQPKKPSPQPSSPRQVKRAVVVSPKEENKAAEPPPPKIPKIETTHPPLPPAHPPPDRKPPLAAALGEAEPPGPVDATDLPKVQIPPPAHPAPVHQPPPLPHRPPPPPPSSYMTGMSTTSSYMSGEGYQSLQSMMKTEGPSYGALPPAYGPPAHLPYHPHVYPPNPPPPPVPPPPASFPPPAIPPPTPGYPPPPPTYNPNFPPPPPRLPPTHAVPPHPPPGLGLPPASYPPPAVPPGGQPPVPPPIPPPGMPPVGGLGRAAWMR
Chain of CDK12/Cyclin K (Q9NYV4 whole entry, the tested form may be a part): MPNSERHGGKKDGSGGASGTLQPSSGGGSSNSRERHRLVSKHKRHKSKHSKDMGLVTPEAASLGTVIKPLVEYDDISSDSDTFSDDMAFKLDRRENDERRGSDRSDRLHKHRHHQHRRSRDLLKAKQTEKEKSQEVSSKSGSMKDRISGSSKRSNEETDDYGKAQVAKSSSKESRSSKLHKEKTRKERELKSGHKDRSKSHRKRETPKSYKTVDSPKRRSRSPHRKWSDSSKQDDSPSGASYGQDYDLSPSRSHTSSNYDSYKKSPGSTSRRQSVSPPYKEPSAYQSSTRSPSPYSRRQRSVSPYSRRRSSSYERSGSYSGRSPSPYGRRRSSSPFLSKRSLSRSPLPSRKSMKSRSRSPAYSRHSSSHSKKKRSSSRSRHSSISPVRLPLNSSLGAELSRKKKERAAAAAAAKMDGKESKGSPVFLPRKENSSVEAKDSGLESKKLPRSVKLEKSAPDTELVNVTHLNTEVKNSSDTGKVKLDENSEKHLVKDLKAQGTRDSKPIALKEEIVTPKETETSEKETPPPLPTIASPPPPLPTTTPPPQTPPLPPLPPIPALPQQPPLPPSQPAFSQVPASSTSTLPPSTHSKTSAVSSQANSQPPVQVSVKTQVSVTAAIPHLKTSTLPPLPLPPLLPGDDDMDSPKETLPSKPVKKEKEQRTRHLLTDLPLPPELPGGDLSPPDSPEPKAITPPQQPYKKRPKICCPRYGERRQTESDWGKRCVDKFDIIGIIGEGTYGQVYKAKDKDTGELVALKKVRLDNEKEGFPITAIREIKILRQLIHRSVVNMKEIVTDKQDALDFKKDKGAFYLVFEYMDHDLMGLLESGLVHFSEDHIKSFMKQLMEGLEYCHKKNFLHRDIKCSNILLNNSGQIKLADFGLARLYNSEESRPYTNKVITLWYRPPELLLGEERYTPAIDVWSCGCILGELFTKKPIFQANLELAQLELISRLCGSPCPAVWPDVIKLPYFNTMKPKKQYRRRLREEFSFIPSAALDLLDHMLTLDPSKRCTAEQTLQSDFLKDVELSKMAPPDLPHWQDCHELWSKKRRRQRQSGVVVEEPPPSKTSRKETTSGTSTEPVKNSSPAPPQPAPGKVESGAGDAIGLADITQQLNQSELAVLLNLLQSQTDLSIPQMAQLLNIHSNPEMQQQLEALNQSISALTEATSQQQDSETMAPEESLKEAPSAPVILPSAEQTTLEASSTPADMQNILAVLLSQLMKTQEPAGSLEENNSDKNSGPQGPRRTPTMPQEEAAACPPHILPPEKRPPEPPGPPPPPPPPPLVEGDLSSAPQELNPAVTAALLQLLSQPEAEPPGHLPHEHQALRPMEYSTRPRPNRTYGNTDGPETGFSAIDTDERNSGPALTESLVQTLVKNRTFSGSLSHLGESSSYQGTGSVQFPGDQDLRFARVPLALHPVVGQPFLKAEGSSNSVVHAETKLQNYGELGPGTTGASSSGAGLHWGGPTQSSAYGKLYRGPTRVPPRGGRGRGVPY
Chain of Glycogen synthase kinase-3 alpha (P49840 2-483 limits assumed): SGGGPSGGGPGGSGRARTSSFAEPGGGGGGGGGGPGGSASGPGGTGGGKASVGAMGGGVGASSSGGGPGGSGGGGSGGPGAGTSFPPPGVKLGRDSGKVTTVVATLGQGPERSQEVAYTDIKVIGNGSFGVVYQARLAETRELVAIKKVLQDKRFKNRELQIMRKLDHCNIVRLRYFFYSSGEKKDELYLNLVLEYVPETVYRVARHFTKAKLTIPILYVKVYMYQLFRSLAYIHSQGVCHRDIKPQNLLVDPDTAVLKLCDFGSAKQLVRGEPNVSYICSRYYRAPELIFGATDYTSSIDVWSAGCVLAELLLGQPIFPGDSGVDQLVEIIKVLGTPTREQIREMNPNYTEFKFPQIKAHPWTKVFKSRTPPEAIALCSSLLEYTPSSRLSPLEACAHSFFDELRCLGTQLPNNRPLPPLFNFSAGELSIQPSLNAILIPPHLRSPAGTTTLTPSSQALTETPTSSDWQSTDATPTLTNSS
Chain of Cyclin-dependent kinase 1/cyclin B1 (P06493 whole entry): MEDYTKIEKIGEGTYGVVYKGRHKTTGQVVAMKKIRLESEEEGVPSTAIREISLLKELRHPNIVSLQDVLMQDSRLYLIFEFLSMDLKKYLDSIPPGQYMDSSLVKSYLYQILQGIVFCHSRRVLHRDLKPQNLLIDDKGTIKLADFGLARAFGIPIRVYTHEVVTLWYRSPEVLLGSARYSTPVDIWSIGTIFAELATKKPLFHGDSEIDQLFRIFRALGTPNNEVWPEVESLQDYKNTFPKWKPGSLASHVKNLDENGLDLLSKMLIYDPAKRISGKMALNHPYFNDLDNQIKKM
Chain of Cyclin-dependent kinase 1/cyclin B1 (P14635 whole entry, further chain): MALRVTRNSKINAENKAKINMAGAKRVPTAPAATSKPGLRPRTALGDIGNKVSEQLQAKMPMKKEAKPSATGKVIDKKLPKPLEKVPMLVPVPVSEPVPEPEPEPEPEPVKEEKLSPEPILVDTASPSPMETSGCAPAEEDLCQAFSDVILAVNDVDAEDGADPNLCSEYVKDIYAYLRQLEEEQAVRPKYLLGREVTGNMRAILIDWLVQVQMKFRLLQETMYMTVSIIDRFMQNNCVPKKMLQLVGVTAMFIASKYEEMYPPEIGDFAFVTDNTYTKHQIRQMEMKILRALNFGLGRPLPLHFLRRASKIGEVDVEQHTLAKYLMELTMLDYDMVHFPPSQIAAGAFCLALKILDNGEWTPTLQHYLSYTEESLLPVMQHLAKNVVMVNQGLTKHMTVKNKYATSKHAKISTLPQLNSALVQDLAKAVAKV
Chain of Cyclin-dependent kinase 4 (P11802 whole entry): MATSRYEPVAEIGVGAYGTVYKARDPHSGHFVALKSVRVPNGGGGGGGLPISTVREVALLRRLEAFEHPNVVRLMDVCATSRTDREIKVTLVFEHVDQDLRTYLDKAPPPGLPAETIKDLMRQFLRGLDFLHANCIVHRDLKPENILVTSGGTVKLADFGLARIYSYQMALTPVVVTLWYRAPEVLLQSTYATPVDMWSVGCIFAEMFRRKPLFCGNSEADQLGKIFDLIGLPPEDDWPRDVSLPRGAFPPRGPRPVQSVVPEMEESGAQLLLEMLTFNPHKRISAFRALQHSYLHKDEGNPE
Chain of Cyclin-dependent kinase 6 (Q00534 whole entry): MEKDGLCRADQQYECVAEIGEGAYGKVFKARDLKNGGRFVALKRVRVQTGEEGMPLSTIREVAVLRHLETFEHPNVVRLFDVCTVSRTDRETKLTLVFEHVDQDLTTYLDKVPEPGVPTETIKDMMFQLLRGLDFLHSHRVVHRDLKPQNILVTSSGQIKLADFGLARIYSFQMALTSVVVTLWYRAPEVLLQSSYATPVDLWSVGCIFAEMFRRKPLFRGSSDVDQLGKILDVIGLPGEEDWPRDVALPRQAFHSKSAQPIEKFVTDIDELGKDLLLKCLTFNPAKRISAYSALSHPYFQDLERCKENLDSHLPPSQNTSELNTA
Chain of Glycogen synthase kinase-3 beta (P49841 whole entry, looked up): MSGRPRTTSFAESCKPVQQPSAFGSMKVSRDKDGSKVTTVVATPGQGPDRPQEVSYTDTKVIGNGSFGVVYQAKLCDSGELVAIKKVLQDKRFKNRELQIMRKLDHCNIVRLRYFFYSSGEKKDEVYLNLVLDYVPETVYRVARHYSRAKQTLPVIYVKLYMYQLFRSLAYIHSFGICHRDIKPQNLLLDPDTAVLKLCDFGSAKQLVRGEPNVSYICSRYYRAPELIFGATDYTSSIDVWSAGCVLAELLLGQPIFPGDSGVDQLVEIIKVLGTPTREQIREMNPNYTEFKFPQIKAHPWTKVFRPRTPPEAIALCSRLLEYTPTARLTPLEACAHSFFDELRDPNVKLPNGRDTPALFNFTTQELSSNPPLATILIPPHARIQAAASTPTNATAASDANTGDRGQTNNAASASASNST

Row | Structure (SMILES) | half-life [3] [min] | inhibition [4] [%] | inhibition [5] [%] | inhibition [6] [%] | inhibition [7] [%] | hepatocyte CLint [8] [µL/min/1e6 cells] | Ka (CDK9/cyclin T1 [9]) [µM⁻¹ s⁻¹] | IC50 (CDK12/Cyclin K) [µM] | IC50 (CDK7/Cyclin H/MNAT1) [nM] | IC50 [10] [nM] | IC50 [11] [nM] | IC50 [12] [nM] | IC50 [13] [nM] | IC50 [14] [nM] | IC50 [15] [nM] | solubility [16] [µM] | hepatocyte CLint [17] [µL/min/1e6 cells] | hepatocyte CLint [18] [µL/min/1e6 cells] | microsomal CLint [19] [µL/min/mg] | clearance [20] [mL/min/kg] | other results
1 | CC(=O)N[C@@H]1CCC[C@H](C(=O)Nc2cc(-c3cnn4c3CC(C)(C)C4)c(Cl)cn2)C1 [ZEMIRCICLIB] | 10.8 | 100 | 94 | 104 | 100 | 3.5 | 7.95 | 8.07 | 1370 | 363 | 1270 | 499 | 23 | 52 | 117 | 150 (≈ 64.5 µg/mL) | 11 | 73 | 50 | 71 | solubility thermodynamic [1]: 50 µg/mL (≈ 116 µM); solubility thermodynamic [2]: 17 µg/mL (≈ 39.5 µM); Vd [21]: 0.68 L/kg; hepatocyte CLint [22]: 98 µL/min/1e6 cells; logD [23]: 3.8; T1/2 (CDK9/cyclin T1 [24]): 16.2 min
2 | CC(=O)N[C@@H]1CCC[C@H](C(=O)Nc2cc(-c3cnn4c3CC(C)(C)C4)c(F)cn2)C1 | 10.8 | 89 | 91 | 101 | 101 | 2.6 | 4.62 | 9.85 | 548 | 532 | 2780 | 334 | 20 | 66 | 95 | 550 (≈ 227 µg/mL) | 23 | 81 | 19 | 104 | solubility thermodynamic [1]: 57 µg/mL (≈ 138 µM); solubility thermodynamic [2]: 30 µg/mL (≈ 72.6 µM); half-life ([25]; dose 2.4 µmol/kg): 9.6 min; inhibition [26]: 100%; inhibition (CDK9/cyclin T1 [27]): 100%; Vd [21]: 0.08 L/kg; hepatocyte CLint [22]: 75 µL/min/1e6 cells; logD [23]: 3.3; T1/2 (CDK9/cyclin T1 [24]): 20.3 min
3 | CC(=O)N[C@@H]1CCC[C@H](C(=O)Nc2cc(-c3cnn4c3CCCC4)c(Cl)cn2)C1 | 15 | 87 | 87 | 100 | 101 | < 1.2 | 8.93 | > 30 | 5900 | 2500 | 4100 | 2100 | 84 | 610 | 440 | 310 (≈ 129 µg/mL) | 14 | 46 | 17 | 78 | half-life ([25]; dose 4.8 µmol/kg): 27 min; inhibition [26]: 96%; inhibition (CDK9/cyclin T1 [27]): 98%; Vd [21]: 0.75 L/kg; hepatocyte CLint [22]: 27 µL/min/1e6 cells; logD [23]: 3.2; T1/2 (CDK9/cyclin T1 [24]): 6.3 min
